{"source": "patent US20110257220A1", "about": "“3,11 b-cis-Dihydrotetrabenazine for the Treatment of Schizophrenia and Other Psychoses” (CAMBRIDGE LABORATORIES (IRELAND) LIMITED, priority 2005, published 2011)", "key": {"[1]": {"test_system": "female hooded-Lister rats", "details": "risperidone; Grayson et al; cited from earlier work"}, "[2]": {"test_system": "female hooded-Lister rats", "experiment": "Novel object recognition (NOR) task, sub-chronic PCP-induced cognitive deficit", "type": "in vivo, rat", "details": "0.2 mg/kg risperidone i.p.; sub-chronic PCP rats; did not reach statistical significance; FIG. 3", "excerpt": "Certain pre-clinical tests allow the observation of relatively subtle cognitive deficits in the rat that resemble cognitive symptoms in subjects with schizophrenia. The cognitive deficits observed are seen in behaviours such as working memory deficits which may be measured by recognition tasks such as the novel object recognition (NOR) paradigm. A recognition memory task allows the comparison between presented stimuli and previously stored information. Ennaceur & Delacour, Behav. Brain Res. 31: 47-59 (1988) described the NOR test in rats which was based on the differential exploration of familiar and new objects. The NOR test is a non-rewarded, ethologically relevant paradigm based on the spontaneous exploratory behaviour of rats which measures working memory. Each session consists of two trials. In the first trial, the rats are exposed to two identical objects in an open field. During the second trial, rats are exposed to two dissimilar objects, one familiar object from the first trial and one new object. Object recognition in rats can be measured as the difference in time spent exploring the familiar and the new object.\nThe abovementioned rodent model was used to assess the effects of the Isomer A on sub-chronic PCP-induced deficits in working memory using the novel object recognition (NOR) paradigm. The working hypothesis was that both acute and sub-chronic treatment with Isomer A will attenuate the selective working memory deficit induced by sub-chronic PCP as measured in the NOR test paradigm.\nRats are allowed to habituate to the empty test box and the behavioural test room environment for 1 hour on day 1. Prior to behavioural testing on day 2 rats are given a further 3 minutes habituation.\nFollowing the 3 minute habituation period, the rats are given two 3 minute trials (T1 and T2) which are separated by a 1 minute inter-trial interval in the home cage during which the objects are changed.\nIn this trial, the animals are allowed to explore two identical objects (A1 and A2) for 3 minutes.\nIn this trial, the animals explore a familiar object (A) from T1 and a novel object (B) for 3 minutes. The familiar object presented during T2 is a duplicate of the object presented in T1 in order to avoid any olfactory trails.\nThe object exploration is defined by animals licking, sniffing or touching the object with the forepaws whilst sniffing, but not leaning against, turning around, standing or sitting on the object. The exploration time (s) of each object (A1, A2, A and B) in each trial are recorded using two stopwatches and the following factors are calculated: • Total exploration time of both objects in the acquisition trial (s). • Total exploration time of both objects in the retention trial (s). • Habituation of exploratory activity. The LMA includes the exploration time, as measured by the number of lines crossed, for both the trials. • Discrimination index, which is calculated as shown below;\n(time spent exploring novel object−time spent exploring familiar object)÷total time spent in exploring the objects\nBehaviour in all trials was recorded on video for subsequent blind scoring.\n50 female hooded-Lister rats (Harlan, UK) were used as subjects for these studies. Rats were housed in groups of 5 under standard laboratory conditions under a 12 hr light:dark cycle, lights on at 0700 hr. All testing was carried out in the light phase. Food and water were freely provided. […]"}}, "data": [{"smiles": "Cc1nc2n(c(=O)c1CCN1CCC(c3noc4cc(F)ccc34)CC1)CCCC2", "note": "[risperidone, reference compound]", "values": [{"measurement": "Sub-chronic PCP-induced deficit in NOR paradigm", "setting": "[1]", "value": "efficacy of risperidone to attenuate"}, {"measurement": "Discrimination index (DI)", "setting": "[2]", "value": "improved"}]}]}
